Holding throughout (type): cell-based
In one assay the target is T1, human TLR8 (Homo sapiens, UniProt Q9NR97).
T1 construct: host or cells: HEK-Blue cells (HEK293-derived reporter line)
T1 sequence (Q9NR97 27-1041): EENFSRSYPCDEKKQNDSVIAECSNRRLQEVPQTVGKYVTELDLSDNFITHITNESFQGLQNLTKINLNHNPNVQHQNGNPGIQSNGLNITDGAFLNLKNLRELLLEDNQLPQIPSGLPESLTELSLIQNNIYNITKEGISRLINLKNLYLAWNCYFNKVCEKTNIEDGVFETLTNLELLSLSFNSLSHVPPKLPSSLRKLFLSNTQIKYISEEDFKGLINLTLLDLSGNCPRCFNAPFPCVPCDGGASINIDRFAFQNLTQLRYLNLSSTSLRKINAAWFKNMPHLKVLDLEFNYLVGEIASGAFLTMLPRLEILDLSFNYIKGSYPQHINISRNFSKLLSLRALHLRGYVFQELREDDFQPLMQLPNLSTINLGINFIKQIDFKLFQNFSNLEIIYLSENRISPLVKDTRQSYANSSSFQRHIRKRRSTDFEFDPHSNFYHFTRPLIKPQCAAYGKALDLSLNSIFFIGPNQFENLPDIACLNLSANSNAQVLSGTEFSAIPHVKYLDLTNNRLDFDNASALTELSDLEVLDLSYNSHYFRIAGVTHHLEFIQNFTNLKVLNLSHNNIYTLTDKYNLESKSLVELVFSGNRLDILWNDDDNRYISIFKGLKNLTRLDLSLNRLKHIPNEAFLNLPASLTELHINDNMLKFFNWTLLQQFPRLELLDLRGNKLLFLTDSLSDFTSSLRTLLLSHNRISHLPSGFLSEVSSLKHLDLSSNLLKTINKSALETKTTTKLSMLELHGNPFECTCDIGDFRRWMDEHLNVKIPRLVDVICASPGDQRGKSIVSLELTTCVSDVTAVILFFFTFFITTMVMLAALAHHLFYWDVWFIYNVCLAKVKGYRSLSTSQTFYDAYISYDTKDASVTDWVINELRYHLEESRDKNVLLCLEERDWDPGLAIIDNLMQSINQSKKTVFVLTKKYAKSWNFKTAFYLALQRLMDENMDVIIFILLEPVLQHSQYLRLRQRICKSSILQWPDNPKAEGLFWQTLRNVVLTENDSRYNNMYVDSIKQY
As to the kind of experiment: TLR8 inhibition reporter assay (HEK-Blue cells, SEAP reporter, R848 stimulation). Particulars: HEK-Blue cells overexpressing human TLR8, SEAP reporter, R848 15.9 μM. The method in brief: (§1)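 Percent inhibition of agonist-induced SEAP secretion in HEK-Blue cells after 22 h at 37 °C. Stimuli: 7.5 μM gardiquimod, 15.9 μM R848, 5 nM ODN2006 for TLR7, TLR8 and TLR9, added after 30 min compound exposure over a 0.05 nM–50 μM range.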
A general note: In a reporter assay the amount or activity of a reporter protein is the signal.

Another assay addresses T2, human TLR9 (Homo sapiens, UniProt Q9NR96).
T2 construct: host or cells: HEK-Blue cells (HEK293-derived reporter line)
T2 sequence (Q9NR96 26-1032): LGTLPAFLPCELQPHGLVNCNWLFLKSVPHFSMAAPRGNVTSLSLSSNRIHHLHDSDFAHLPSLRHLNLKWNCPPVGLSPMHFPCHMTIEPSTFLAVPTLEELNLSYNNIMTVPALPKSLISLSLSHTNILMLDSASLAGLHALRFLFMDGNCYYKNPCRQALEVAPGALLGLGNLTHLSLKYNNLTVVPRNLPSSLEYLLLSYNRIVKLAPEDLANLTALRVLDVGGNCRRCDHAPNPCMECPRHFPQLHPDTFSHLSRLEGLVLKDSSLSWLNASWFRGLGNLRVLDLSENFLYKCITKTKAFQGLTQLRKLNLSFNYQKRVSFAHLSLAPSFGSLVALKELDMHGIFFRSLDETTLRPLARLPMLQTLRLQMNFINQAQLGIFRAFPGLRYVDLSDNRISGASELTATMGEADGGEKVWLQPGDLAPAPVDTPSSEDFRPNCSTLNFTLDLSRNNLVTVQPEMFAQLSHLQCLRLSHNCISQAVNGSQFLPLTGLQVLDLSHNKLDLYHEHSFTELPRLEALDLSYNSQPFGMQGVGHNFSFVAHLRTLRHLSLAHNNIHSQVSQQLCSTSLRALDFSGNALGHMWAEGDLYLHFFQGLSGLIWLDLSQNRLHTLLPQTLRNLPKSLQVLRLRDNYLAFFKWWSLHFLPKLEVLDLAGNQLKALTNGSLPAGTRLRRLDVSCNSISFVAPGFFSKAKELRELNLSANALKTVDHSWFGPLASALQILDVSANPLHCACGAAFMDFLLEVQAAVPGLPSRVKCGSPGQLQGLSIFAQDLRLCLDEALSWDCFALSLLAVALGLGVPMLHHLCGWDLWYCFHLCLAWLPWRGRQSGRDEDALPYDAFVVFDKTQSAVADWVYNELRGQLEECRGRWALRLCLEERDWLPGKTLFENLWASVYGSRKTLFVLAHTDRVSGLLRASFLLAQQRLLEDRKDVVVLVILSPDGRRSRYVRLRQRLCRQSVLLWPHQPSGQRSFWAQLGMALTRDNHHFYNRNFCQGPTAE
As to the kind of experiment: TLR9 inhibition reporter assay (HEK-Blue cells, SEAP reporter, ODN2006 stimulation). The note with it: HEK-Blue cells overexpressing human TLR9, SEAP reporter, ODN2006 5 nM. The method in brief: as §1

In another assay the target is T3, human TLR7 (Homo sapiens, UniProt Q9NYK1).
T3 construct: host or cells: HEK-Blue cells (HEK293-derived reporter line)
T3 sequence (Q9NYK1 27-1049): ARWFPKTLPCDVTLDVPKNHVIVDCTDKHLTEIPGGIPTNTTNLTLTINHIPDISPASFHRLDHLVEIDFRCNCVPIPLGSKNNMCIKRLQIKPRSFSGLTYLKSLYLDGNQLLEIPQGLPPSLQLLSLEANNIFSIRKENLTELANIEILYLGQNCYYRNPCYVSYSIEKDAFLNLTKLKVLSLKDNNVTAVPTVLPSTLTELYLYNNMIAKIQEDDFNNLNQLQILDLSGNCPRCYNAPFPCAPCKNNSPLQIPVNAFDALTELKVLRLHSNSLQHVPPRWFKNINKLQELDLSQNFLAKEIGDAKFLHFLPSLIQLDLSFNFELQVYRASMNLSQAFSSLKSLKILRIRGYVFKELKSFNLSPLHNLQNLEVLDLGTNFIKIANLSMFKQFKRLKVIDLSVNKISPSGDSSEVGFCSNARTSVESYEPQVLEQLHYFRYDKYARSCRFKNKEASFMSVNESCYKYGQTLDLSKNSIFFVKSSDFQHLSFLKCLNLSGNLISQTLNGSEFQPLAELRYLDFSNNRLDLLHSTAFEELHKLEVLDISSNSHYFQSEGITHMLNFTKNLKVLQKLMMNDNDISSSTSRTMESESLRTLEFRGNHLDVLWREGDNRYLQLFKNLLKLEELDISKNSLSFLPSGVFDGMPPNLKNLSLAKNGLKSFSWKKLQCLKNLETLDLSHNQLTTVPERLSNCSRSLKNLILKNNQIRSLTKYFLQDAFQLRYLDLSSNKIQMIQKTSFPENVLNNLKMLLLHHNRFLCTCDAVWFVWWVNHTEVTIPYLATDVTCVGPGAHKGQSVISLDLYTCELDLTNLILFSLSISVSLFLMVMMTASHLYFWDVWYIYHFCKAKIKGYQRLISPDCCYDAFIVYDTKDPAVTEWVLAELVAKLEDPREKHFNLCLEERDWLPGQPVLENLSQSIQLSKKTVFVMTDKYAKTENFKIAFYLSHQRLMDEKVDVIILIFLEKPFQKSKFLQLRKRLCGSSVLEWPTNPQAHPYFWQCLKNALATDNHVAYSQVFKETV
As to the kind of experiment: TLR7 inhibition reporter assay (HEK-Blue cells, SEAP reporter, gardiquimod stimulation). Particulars: HEK-Blue cells overexpressing human TLR7, SEAP reporter, gardiquimod 7.5 μM. The method in brief:
as §1

Regarding `CC(=O)N1CCC(c2ccc3[nH]c(-c4ccnc5[nH]ncc45)c(C(C)C)c3c2)CC1` [Example 592, 1-(4-(3-isopropyl-2-(1H-pyrazolo[3,4-b]pyridin-4-yl)-1H-indol-5-yl)piperidin-1-yl)ethan-1-one], the figures for the IC50 on human TLR8, on human TLR9 and at human TLR7 were 100 to 1000 nM, over 50000 nM and 100 to 1000 nM, respectively.
Consider `CCc1c(-c2ccnc3nn[nH]c23)[nH]c2ccc(C3CCNCC3)cc12` [Example 56, 7-(3-ethyl-5-(piperidin-4-yl)-1H-indol-2-yl)-1H-[1,2,3]triazolo[4,5-b] pyridine], for which the half-inhibitory concentration (IC50) against human TLR8, against human TLR9 and against human TLR7 was 1000 to 50000 nM throughout.
On to `Cc1cc2nnnn2cc1-c1[nH]c2ccc(C3CCN(C(=O)CN(C)C)CC3)cc2c1C(C)C` [Example 486, 2-(dimethylamino)-1-(4-(3-isopropyl-2-(7-methyltetrazolo[1,5-a]pyridin-6-yl)-1H-indol-5-yl)piperidin-1-yl)ethan-1-one], for which the IC50 (as a rule, the concentration that gives 50% inhibition) against human TLR8 was 100 to 1000 nM; at human TLR9, 1000 to 50000 nM; against human TLR7, under 100 nM.
For `CC(C)c1c(-c2cn(C)c3ncccc23)[nH]c2ccc(C3CCN(CCS(N)(=O)=O)CC3)cc12` [Example 783, 2-(4-(3-isopropyl-2-(1-methyl-1H-pyrrolo[2,3-b]pyridin-3-yl)-1H-indol-5-yl)piperidin-1-yl)ethane-1-sulfonamide] the same measures were under 100 nM, 1000 to 50000 nM and under 100 nM.
Regarding `COc1cc(-c2[nH]c3ccc(C4CCNCC4)cc3c2C(C)C)cn2ccnc12` [Example 125, 6-(3-isopropyl-5-(piperidin-4-yl)-1H-indol-2-yl)-8-methoxyimidazo[1,2-a]pyridine], the IC50 at human TLR8 was under 100 nM; at human TLR9, 100 to 1000 nM; on human TLR7 it was under 100 nM.
Take `CC(C)c1c(-c2cccn3ncnc23)[nH]c2ccc(C3CCNCC3)cc12` [Example 196, 8-(3-isopropyl-5-(piperidin-4-yl)-1H-indol-2-yl)-[1,2,4]triazolo[1,5-a]pyridine]: the IC50 against human TLR8 is under 100 nM; against human TLR9 it was 1000 to 50000 nM; at human TLR7, under 100 nM.
Turning to `Cc1cc2nnnn2cc1-c1[nH]c2ccc(C3CCN(CC(=O)N(C)C)CC3)cc2c1C(C)C` [Example 314, 2-(4-(3-isopropyl-2-(7-methyltetrazolo[1,5-a]pyridin-6-yl)-1H-indol-5-yl)piperidin-1-yl)-N,N-dimethylacetamide], the IC50 at human TLR8 was under 100 nM; at human TLR9, 1000 to 50000 nM; against human TLR7 it was under 100 nM.
With `CN1CC(C(=O)N2CCC(c3ccc4[nH]c(-c5ccc6nccn6c5)c(CC(F)F)c4c3)CC2)CC1=O` (stereo not drawn) [Example 644, 4-(4-(3-(2,2-difluoroethyl)-2-(imidazo[1,2-a]pyridin-6-yl)-1H-indol-5-yl)piperidine-1-carbonyl)-1-methylpyrrolidin-2-one], the IC50 on human TLR8 is 1000 to 50000 nM; on human TLR9, over 50000 nM; on human TLR7, 100 to 1000 nM.
With `Cc1cc(-c2[nH]c3ccc(C4CCN(CC(C)C)CC4)cc3c2C(C)C)cc2[nH]cnc12` [Example 955, 6-(5-(1-isobutylpiperidin-4-yl)-3-isopropyl-1H-indol-2-yl)-4-methyl-1H-benzo[d]imidazole], the IC50 was under 100 nM at human TLR8, 100 to 1000 nM on human TLR9 and under 100 nM on human TLR7.
`CC(C)c1c(-c2ccn3nncc3c2)[nH]c2ccc(C3CCN(C4CCOCC4)CC3)cc12` [Example 696, 5-(3-isopropyl-5-(1-(tetrahydro-2H-pyran-4-yl)piperidin-4-yl)-1H-indol-2-yl)-[1,2,3]triazolo[1,5-a]pyridine]: the IC50 was 100 to 1000 nM on human TLR8, 1000 to 50000 nM against human TLR9 and under 100 nM against human TLR7.
For the compound `CC(C)c1c(-c2ccc3ncoc3c2)[nH]c2ccc(C3CCN(CC(=O)N(C)C)CC3)cc12` [Example 288, 2-(4-(2-(benzo[d]oxazol-6-yl)-3-isopropyl-1H-indol-5-yl)piperidin-1-yl)-N,N-dimethylacetamide], the concentration for half-maximal inhibition (IC50) was under 100 nM against human TLR8, 1000 to 50000 nM at human TLR9 and under 100 nM against human TLR7.
For `CC(C)c1c(-c2ccnc3[nH]ncc23)[nH]c2ccc(C3CCN(CCN4CCCCCC4)CC3)cc12` [Example 660, 4-(5-(1-(2-(azepan-1-yl)ethyl)piperidin-4-yl)-3-isopropyl-1H-indol-2-yl)-1H-pyrazolo[3,4-b]pyridine], the IC50 on human TLR8 was under 100 nM; against human TLR9 it was 100 to 1000 nM; at human TLR7, under 100 nM.
Consider `Cc1cc(-c2[nH]c3ccc(C4CCN(C(=O)CN5CCOCC5)CC4)cc3c2C(C)C)cn2nnnc12` [Example 476, 1-(4-(3-isopropyl-2-(8-methyltetrazolo[1,5-a]pyridin-6-yl)-1H-indol-5-yl)piperidin-1-yl)-2-morpholinoethan-1-one], for which the IC50 on human TLR8 was under 100 nM; at human TLR9, 1000 to 50000 nM; on human TLR7 it was under 100 nM.

(Values after patent US11739098B2 (BRISTOL-MYERS SQUIBB COMPANY, priority 2017, dated 2023).)
